Measured values reported in patent US9884821B2, “N1-cyclic amine-N5-substituted biguanide derivatives, methods of preparing the same and pharmaceutical composition comprising the same” (IMMUNOMET THERAPEUTICS INC., priority 2013, dated 2018).

What was measured:
[1] = system: AMPK; assay: AMPK activation effect (AMPK [pT172] ELISA) in MCF7 cells; type: cell-based, human; settings: 24 hours; for AMPK activation effect (%) 10 μM / AMPK activation effect (%) 50 μM / AMPK activation effect (%) 5 μM: AMPKα Thr172 phosphorylation relative to untreated cells; for AC150: concentration at which AMPK activation reached 150%
Method in brief: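 MCF7 cells in DMEM/10% FBS were treated 24 h with compounds at 5, 10 and 50 uM. Lysates (20 μg protein) were assayed by ELISA for AMPKα Thr172 phosphorylation as the activation read-out.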

[2] = system: HCT116 cells; assay: Effect of inhibiting cancer cell proliferation (MTT) in HCT116 cells; type: cell-based, human; settings: Homo sapiens, HCT-116, 48 h; for inhibition at 100 µM: read-out: Cell growth inhibition (%) at 100 μM; for inhibition at 25 µM: read-out: Cell growth inhibition (%) at 25 μM
Method in brief: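 HCT116 colorectal cells (about 5,000 per well, DMEM with 10% FBS) treated with 100, 25, 6.25, 1.56 or 0.39 μM compound for 48 h. MTT added for 3 h, formazan read at 560 nm; GIC50 taken from viability relative to untreated cells.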

Row | SMILES | GI50 [2] [µM] | AMPK activation effect (%) 10 μM [1] [%] | AMPK activation effect (%) 50 μM [1] [%] | AC150 [1] [µM] | inhibition at 100 µM [2] [%] | AMPK activation effect (%) 5 μM [1] [%] | inhibition at 25 µM [2] [%]
1 | CCCCNC(=N)NC(=N)N1CC=CCC1.Cl [Example 59, N1-1,2,3,6-tetrahydropyridine-N5-butyl biguanide hydrochloride] | 141 | 104 | 283 | 16.6 | 44.5 |  | 
2 | CCCCCCNC(=N)NC(=N)N1CC=CCC1.Cl [Example 53, N1-1,2,3,6-tetrahydropyridine-N5-hexyl biguanide hydrochloride] | 43.7 | 311 | 589 | 2.3 | 97.9 |  | 
3 | CC1=CCN(C(=N)NC(=N)Nc2ccc(Cl)cc2)C1.Cl [Example 17, N1-(3-methyl)-1,2-dihydropyrrole-N5-(4-chloro)phenyl biguanide hydrochloride] | 13.9 | 208 |  | 4.7 | 99.7 |  | 
4 | CC1CCCC(C)N1C(=N)NC(=N)Nc1ccc(OC(F)(F)F)cc1.Cl (stereo not shown) [Example 89, N1-(2,6-dimethyl)piperidine-N5-(4-trifluoromethoxy)phenyl biguanide hydrochloride] | 6.2 | 198 |  | 4.7 |  | 153 | 100
5 | CC1CCCCN1C(=N)NC(=N)Nc1ccc(OC(F)(F)F)c(F)c1.Cl (stereo not shown) [Example 76, N1-(2-methyl)piperidine-N5-(3-fluoro, 4-trifluoromethoxy)phenyl biguanide hydrochloride] | 5.8 | 375 |  | 1.7 |  | 242 | 100
6 | CC1CCCN(C(=N)NC(=N)Nc2cccc(C(F)(F)F)c2)C1.Cl (stereo not shown) [Example 88, N1-(3-methyl)piperidine-N5-(3-trifluoromethyl)phenyl biguanide hydrochloride] | 6.6 | 399 |  | 0.7 |  | 327 | 100
7 | CC1=CCN(C(=N)NC(=N)NCc2ccc(C(F)(F)F)cc2)C1.Cl [Example 26, N1-(3-methyl)-1,2-dihydropyrrole-N5-(4-trifluoromethyl)benzyl biguanide hydrochloride] | 8.2 | 443 | 358 | 0.68 | 96.7 |  | 
8 | CC1=CCN(C(=N)NC(=N)NCc2ccc(Cl)c(C(F)(F)F)c2)C1.Cl [Example 27, N1-(3-methyl)-1,2-dihydropyrrole-N5-(4-chloro, 3-trifluoromethyl)benzyl biguanide hydrochloride] | 33.5 | 119 | 316 | 13.5 | 96.6 |  | 
9 | COc1ccc(NC(=N)NC(=N)N2CC=C(C)C2)cc1.Cl [Example 22, N1-(3-methyl)-1,2-dihydropyrrole-N5-(4-methoxyl)phenyl biguanide hydrochloride] | 18.6 | 116 | 209 | 24.5 | 37.1 |  | 

Further lines, with some results ahead:

Row | GI50 [2] [µM] | SMILES | AMPK activation effect (%) 10 μM [1] [%] | AMPK activation effect (%) 50 μM [1] [%] | AC150 [1] [µM] | inhibition at 100 µM [2] [%] | AMPK activation effect (%) 5 μM [1] [%] | inhibition at 25 µM [2] [%]
10 | 6.6 | Cl.N=C(NC(=N)N1CC=CCC1)Nc1ccc(OC(F)(F)F)c(F)c1 [Example 34, N1-1,2,3,6-tetrahydropyridine-N5-(3-fluoro, 4-trifluoromethoxy)phenyl biguanide hydrochloride] | 925 |  | 0.29 | 99.4 |  | 
11 | 9.5 | Cl.N=C(NC(=N)N1CC=CCC1)Nc1ccc(C(F)(F)F)cc1 [Example 29, N1-1,2,3,6-tetrahydropyridine-N5-(4-trifluoromethyl)phenyl biguanide hydrochloride] | 551 |  | 1.3 | 100 |  | 
12 | 14.6 | Cl.N=C(NCc1ccc(OC(F)(F)F)cc1)NC(=N)N1CC=CCC1 [Example 54, N1-1,2,3,6-tetrahydropyridine-N5-(4-trifluoromethoxy)benzyl biguanide hydrochloride] | 545 | 650 | 0.87 | 98.1 |  | 
13 | 57 | Cc1cccc(NC(=N)NC(=N)N2CC=CCC2)c1.Cl [Example 49, N1-1,2,3,6-tetrahydropyridine-N5-(3-methyl)phenyl biguanide hydrochloride] | 319 | 917 | 1.9 | 91.8 |  | 
14 | 12 | Cl.N=C(NC(=N)N1CC=CC1)Nc1ccc(F)c(C(F)(F)F)c1 [Example 46, N1-1,2-dihydropyrrole-N5-(4-fluoro, 3-trifluoromethyl)phenyl biguanide hydrochloride] | 448 |  | 1.6 | 100 |  | 
15 | 3.7 | Cl.N=C(NC(=N)N1CC=CCC1)Nc1ccc(Cl)c(C(F)(F)F)c1 [Example 33, N1-1,2,3,6-tetrahydropyridine-N5-(4-chloro, 3-trifluoromethyl)phenyl biguanide hydrochloride] | 992 |  | 0.79 | 99.4 |  | 
